Experimental findings from patent publication US10834950B2, “Organic compounds” (GIVAUDAN SA, priority 2013, dated 2020) are described below.

The structures appear in SMILES notation.

Assay [1] can be described thus: Diluted soy sauce tasting by panel. Conditions: 5 ppm added to diluted soy sauce.
Assay [2] can be described thus: Umami base flavour (aqueous NaCl, MSG, ribonucleotides) tasting by panel.
Assay [3] is described as follows: Milk drink (semi skim milk) tasting by panel. Conditions: 5 ppm added to semi skim milk drink.
The nature of assay [4]: Beef bouillon tasting by a panel of experienced tasters. Conditions: 40 ppb added to beef bouillon. The protocol: A beef bouillon was prepared using bouillon cubes obtained from a local supermarket.
The mark [5] stands for this setting: 5 ppm added to umami base flavour.

With `CCCCCCCCCCCCCC(=O)NC(Cc1c[nH]c2ccccc12)C(=O)O` (stereo not drawn) [3-(1H-indol-3-yl)-2-tetradecanamidopropanoic acid], in assay [1], the “taste of soy sauce compared to the reference (panel)” value was “more mouthfeel, and fuller compared to the reference”. Moreover, the “taste of umami base compared to the reference (panel)” value in assay [2] (setting [5]) is on record as “more umami than the reference”. For the same compound, the “taste of milk drink compared to the reference (panel)” value in assay [3] was “very creamy aftertaste, and a nice and slightly dryness at the front compared to the reference”. Take `CCCCCC/C=C\CCCC(=O)NC(Cc1c[nH]c2ccccc12)C(=O)O` (stereo not drawn) [(Z)-2-(dodec-5-enamido)-3-(1H-indol-3-yl)propanoic acid]: the “taste of umami base compared to the reference (panel)” value in assay [2] (setting [5]) is listed as “more umami than the reference”. For the same compound, the “taste of milk drink compared to the reference (panel)” value in assay [3] is reported as “slightly increased creamy than the reference”. Take `CCCCCC/C=C\CCCC(=O)NC(Cc1ccccc1)C(=O)O` (stereo not drawn) [Example 1, (Z)-2-(Dodec-5-enamido)-3-phenylpropanoic acid]: the “taste of bouillon compared to the reference (panel)” value in assay [4] was “more umami, slightly more sweet, and the overall flavor profile lasts longer than the reference”. As for `CCCCCCCCCCCC(=O)NC(Cc1ccccc1)C(=O)O` (stereo not drawn) [Example 3, 2-(Dodecanoylamino)-3-phenylpropanoic acid], the “taste of umami base compared to the reference (panel)” value in assay [2] (50 ppm added to umami base flavour) was “more umami, and thicker, possessed a lot of mouthfeel and a nice body, and provided a cleaner taste than the reference”. With `CCCCCC/C=C\CCCC(=O)NC(Cc1ccc(O)cc1)C(=O)O` (stereo not drawn) [Example 2, (Z)-2-(Dodec-5-enamido)-3-(4-hydroxyphenyl)propanoic acid], the “taste of bouillon compared to the reference (panel)” value in assay [4] was “slightly more umami, slightly more bitter and sweeter than the reference”. `CCCCCCCCCCCC(=O)NC(Cc1c[nH]c2ccccc12)C(=O)O` (stereo not drawn) [2-(dodecanoylamino)-3-(1H-indol-3-yl)propanoic acid]: the “taste of umami base compared to the reference (panel)” value in assay [2] (20 ppm added to umami base flavour) is listed as “more fatty mouthfeel than the reference”.
